# ChEMBL document CHEMBL4229496, “Discovery of small molecule inhibitors of adenovirus by disrupting E3-19K/HLA-A2 interactions” (Bioorg Med Chem Lett, 2018)
# Where a name gives a salt, the structure may show the parent alone.
# Molecular target: HLA class I histocompatibility antigen, A alpha chain (Homo sapiens, UniProt P04439, D140Y/D185E/D98H/E176V/E277Q/G131W/G231S/I119V/I121R/I166T/I218V/L300P/L318F/N151K/N90K/P208A/P217A/Q86G/Q94H/R138H/R169H/T345S)
# Assay: Binding affinity to human biotinylated HLA-A2 by surface plasmon resonance assay
row,SMILES,Kd
1,O=C(c1ccc(OCCN2CCCCC2)cc1)c1c(-c2ccc(O)cc2)sc2cc(O)ccc12 [RALOXIFENE HYDROCHLORIDE],22 µM
2,COc1ccc(CCN2CCC(Nc3nc4ccccc4n3Cc3ccc(F)cc3)CC2)cc1 [ASTEMIZOLE],2.5 to 75 µM
3,O=c1n(CCCN2CCN(c3cccc(Cl)c3)CC2)nc2ccccn12 [TRAZODONE HYDROCHLORIDE],2.5 µM
4,COc1cc2nc(N3CCN(C(=O)C4COc5ccccc5O4)CC3)nc(N)c2cc1OC (stereo unspecified) [DOXAZOSIN MESYLATE],15.7 µM
5,O=C(CCCN1CCC2(CC1)C(=O)NCN2c1ccccc1)c1ccc(F)cc1 [SPIPERONE],2.5 to 75 µM
6,O=C(CCCN1CCC(O)(c2ccc(Cl)cc2)CC1)c1ccc(F)cc1 [HALOPERIDOL],< 10 µM
